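Following 48 hours of exposure in 96-well plates, responses at five concentrations were used to interpolate endpoints linearly. The concentration for 50% growth inhibition is given as GI50. TGI denotes the concentration required for complete inhibition of growth.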
Key:
Test in all cases: inhibition of tumour cell growth, NCI panel, 48 h
NCI-H23 lung = test system: NCI-H23 lung
OVCAR-5 ovarian = test system: OVCAR-5 ovarian
SF-268 CNS = test system: SF-268 CNS
T-47D breast = test system: T-47D breast
EKVX NSCLC = test system: EKVX NSCLC
SK-MEL-5 melanoma = test system: SK-MEL-5 melanoma
HOP-62 NSCLC = test system: HOP-62 NSCLC
OVCAR-8 ovarian = test system: OVCAR-8 ovarian
SW-620 colon = test system: SW-620 colon
HS 578T breast = test system: HS 578T breast
SNB-19 CNS = test system: SNB-19 CNS
OVCAR-4 ovarian = test system: OVCAR-4 ovarian
SR leukemia = test system: SR leukemia
SNB-75 CNS = test system: SNB-75 CNS
NCI-H460 lung = test system: NCI-H460 lung
PC-3 prostate = test system: PC-3 prostate
UO-31 renal = test system: UO-31 renal
A549 NSCLC = test system: A549 NSCLC
MOLT-4 leukemia = test system: MOLT-4 leukemia
TK-10 renal = test system: TK-10 renal
SF-539 CNS = test system: SF-539 CNS
COLO 205 colon = test system: COLO 205 colon
CCRF-CEM leukemia = test system: CCRF-CEM leukemia
UACC-62 melanoma = test system: UACC-62 melanoma
HCT-15 colon = test system: HCT-15 colon
BT-549 breast = test system: BT-549 breast
HCC-2998 colon = test system: HCC-2998 colon
HCT-116 colon = test system: HCT-116 colon
NCI-H522 lung = test system: NCI-H522 lung
MDA-MB-231 breast = test system: MDA-MB-231 breast
SN12C renal = test system: SN12C renal
A498 renal = test system: A498 renal
ACHN renal = test system: ACHN renal
SK-MEL-2 melanoma = test system: SK-MEL-2 melanoma
OVCAR-3 ovarian = test system: OVCAR-3 ovarian
NCI/ADR-RES ovarian = test system: NCI/ADR-RES ovarian
HT29 colon = test system: HT29 colon
CAKI-1 renal = test system: CAKI-1 renal
NCI-H226 lung = test system: NCI-H226 lung
KM12 colon = test system: KM12 colon
RXF 393 renal = test system: RXF 393 renal
LOX IMVI melanoma = test system: LOX IMVI melanoma
HL-60(TB) leukemia = test system: HL-60(TB) leukemia
MCF7 breast = test system: MCF7 breast
HOP-92 NSCLC = test system: HOP-92 NSCLC
786-0 renal = test system: 786-0 renal
MALME-3M melanoma = test system: MALME-3M melanoma
SK-OV-3 ovarian = test system: SK-OV-3 ovarian
K-562 leukemia = test system: K-562 leukemia
SK-MEL-28 melanoma = test system: SK-MEL-28 melanoma
UACC-257 melanoma = test system: UACC-257 melanoma
M14 melanoma = test system: M14 melanoma
MDA-MB-435 = test system: MDA-MB-435
U251 CNS = test system: U251 CNS
IGROV1 ovarian = test system: IGROV1 ovarian
SF-295 CNS = test system: SF-295 CNS
DU-145 prostate = test system: DU-145 prostate

Compound: CCCNNC(=O)c1ccc(-c2ccc(NC(=O)CCCCCCC(=O)N[C@H](C(=O)N3C[C@H](O)C[C@H]3C(=O)N[C@@H](C)c3ccc(-c4scnc4C)cc3)C(C)(C)C)cc2)cc1
- GI50 (NCI-H23 lung): 2.22 µM
- TGI (NCI-H23 lung): > 100 µM
- GI50 (OVCAR-5 ovarian): 1.88 µM
- TGI (OVCAR-5 ovarian): > 100 µM
- GI50 (SF-268 CNS): 3.63 µM
- TGI (SF-268 CNS): > 100 µM
- GI50 (T-47D breast): 0.345 µM
- TGI (T-47D breast): > 100 µM
- GI50 (EKVX NSCLC): > 36.6 µM
- TGI (EKVX NSCLC): > 100 µM
- GI50 (SK-MEL-5 melanoma): 2.08 µM
- TGI (SK-MEL-5 melanoma): 8.47 µM
- GI50 (HOP-62 NSCLC): 2.46 µM
- TGI (HOP-62 NSCLC): > 100 µM
- GI50 (OVCAR-8 ovarian): 2.98 µM
- TGI (OVCAR-8 ovarian): > 100 µM
- GI50 (SW-620 colon): 1.28 µM
- TGI (SW-620 colon): 9.26 µM
- GI50 (HS 578T breast): 1.91 µM
- TGI (HS 578T breast): > 100 µM
- GI50 (SNB-19 CNS): 2.62 µM
- TGI (SNB-19 CNS): > 47.6 µM
- GI50 (OVCAR-4 ovarian): > 100 µM
- TGI (OVCAR-4 ovarian): > 100 µM
- GI50 (SR leukemia): 0.386 µM
- TGI (SR leukemia): > 100 µM
- GI50 (SNB-75 CNS): 1.8 µM
- TGI (SNB-75 CNS): > 100 µM
- GI50 (NCI-H460 lung): 2.63 µM
- TGI (NCI-H460 lung): > 100 µM
- GI50 (PC-3 prostate): 1.25 µM
- TGI (PC-3 prostate): > 100 µM
- GI50 (UO-31 renal): > 100 µM
- TGI (UO-31 renal): > 100 µM
- GI50 (A549 NSCLC): > 95.1 µM
- TGI (A549 NSCLC): > 100 µM
- GI50 (MOLT-4 leukemia): 0.41 µM
- TGI (MOLT-4 leukemia): > 100 µM
- GI50 (TK-10 renal): 1.8 µM
- TGI (TK-10 renal): > 100 µM
- GI50 (SF-539 CNS): 2.05 µM
- TGI (SF-539 CNS): > 100 µM
- GI50 (COLO 205 colon): 0.785 µM
- TGI (COLO 205 colon): 3.25 µM
- GI50 (CCRF-CEM leukemia): 0.357 µM
- TGI (CCRF-CEM leukemia): > 100 µM
- GI50 (UACC-62 melanoma): 1.44 µM
- TGI (UACC-62 melanoma): 6.94 µM
- GI50 (HCT-15 colon): > 100 µM
- TGI (HCT-15 colon): > 100 µM
- GI50 (BT-549 breast): 5.29 µM
- TGI (BT-549 breast): > 100 µM
- GI50 (HCC-2998 colon): 2.05 µM
- TGI (HCC-2998 colon): 11.1 µM
- GI50 (HCT-116 colon): 0.41 µM
- TGI (HCT-116 colon): 5.28 µM
- GI50 (NCI-H522 lung): 1.12 µM
- TGI (NCI-H522 lung): > 100 µM
- GI50 (MDA-MB-231 breast): 1.37 µM
- TGI (MDA-MB-231 breast): > 65.1 µM
- GI50 (SN12C renal): 4.21 µM
- TGI (SN12C renal): > 100 µM
- GI50 (A498 renal): 1.41 µM
- TGI (A498 renal): 4.36 µM
- GI50 (ACHN renal): > 100 µM
- TGI (ACHN renal): > 100 µM
- GI50 (SK-MEL-2 melanoma): 2.7 µM
- TGI (SK-MEL-2 melanoma): > 100 µM
- GI50 (OVCAR-3 ovarian): 0.917 µM
- TGI (OVCAR-3 ovarian): 12.7 µM
- GI50 (NCI/ADR-RES ovarian): > 100 µM
- TGI (NCI/ADR-RES ovarian): > 100 µM
- GI50 (HT29 colon): 0.893 µM
- TGI (HT29 colon): > 100 µM
- GI50 (CAKI-1 renal): 7.41 µM
- TGI (CAKI-1 renal): > 100 µM
- GI50 (NCI-H226 lung): 9.28 µM
- TGI (NCI-H226 lung): > 100 µM
- GI50 (KM12 colon): 3.34 µM
- TGI (KM12 colon): > 100 µM
- GI50 (RXF 393 renal): 0.465 µM
- TGI (RXF 393 renal): 2.37 µM
- GI50 (LOX IMVI melanoma): 0.0387 µM
- TGI (LOX IMVI melanoma): 1.08 µM
- GI50 (HL-60(TB) leukemia): 0.394 µM
- TGI (HL-60(TB) leukemia): > 100 µM
- GI50 (MCF7 breast): 0.407 µM
- TGI (MCF7 breast): > 100 µM
- GI50 (HOP-92 NSCLC): 0.258 µM
- TGI (HOP-92 NSCLC): 2.14 µM
- GI50 (786-0 renal): 5.02 µM
- TGI (786-0 renal): > 100 µM
- GI50 (MALME-3M melanoma): 0.457 µM
- TGI (MALME-3M melanoma): > 20.3 µM
- GI50 (SK-OV-3 ovarian): 5.66 µM
- TGI (SK-OV-3 ovarian): > 100 µM
- GI50 (K-562 leukemia): 0.524 µM
- TGI (K-562 leukemia): > 100 µM
- GI50 (SK-MEL-28 melanoma): 0.599 µM
- TGI (SK-MEL-28 melanoma): > 100 µM
- GI50 (UACC-257 melanoma): 0.845 µM
- TGI (UACC-257 melanoma): > 100 µM
- GI50 (M14 melanoma): 2.86 µM
- TGI (M14 melanoma): > 100 µM
- GI50 (MDA-MB-435): 0.848 µM
- TGI (MDA-MB-435): > 39.3 µM
- GI50 (U251 CNS): 1.03 µM
- TGI (U251 CNS): 8.46 µM
- GI50 (IGROV1 ovarian): 0.442 µM
- TGI (IGROV1 ovarian): > 100 µM
- GI50 (SF-295 CNS): 5.97 µM
- TGI (SF-295 CNS): > 100 µM
- GI50 (DU-145 prostate): 2.01 µM
- TGI (DU-145 prostate): > 100 µM
